# Reference: ChEMBL document CHEMBL4715821, “Discovery of 4-ethoxy-7H-pyrrolo[2,3-d]pyrimidin-2-amines as potent, selective and orally bioavailable LRRK2 inhibitors” (Bioorg Med Chem Lett, 2018)
# What was measured:
# [1] = biological target: Tyrosine-protein kinase Fgr (Homo sapiens) (UniProt P09769); assay: Inhibition of wild-type human partial length FGR (L233 to T529 residues) expressed in bacterial expression system assessed as residual activity at 1 uM by Kinomescan method relative to control
# [2] = biological target: Homeodomain-interacting protein kinase 2 (Homo sapiens) (UniProt Q9H2X6); assay: Inhibition of wild-type human partial length HIPK2 (M153 to S564 residues) expressed in mammalian expression system assessed as residual activity at 1 uM by Kinomescan method relative to control
# [3] = biological target: Myosin light chain kinase (Homo sapiens) (UniProt Q32MK0); assay: Inhibition of MYLK3 (unknown origin) assessed as residual activity at 1 uM by Kinomescan method relative to control
# [4] = biological target: Dual specificity tyrosine-phosphorylation-regulated kinase 1B (Homo sapiens) (UniProt Q9Y463); assay: Inhibition of wild-type human full length DYRK1B (M1 to S629 residues) expressed in bacterial expression system assessed as residual activity at 1 uM by Kinomescan method relative to control
# [5] = biological target: Serine/threonine-protein kinase TAO3 (Homo sapiens) (UniProt Q9H2K8); assay: Inhibition of wild-type human partial length TAOK3 (M1 to T316 residues) expressed in mammalian expression system assessed as residual activity at 1 uM by Kinomescan method relative to control
# [6] = biological target: Leucine-rich repeat serine/threonine-protein kinase 2 (Homo sapiens, UniProt Q5S007); assay: Inhibition of wild-type human partial length LRRK2 (H970 to E2527 residues) expressed in mammalian expression system assessed as residual activity at 1 uM by Kinomescan method relative to control
# [7] = biological target: cAMP-dependent protein kinase catalytic subunit gamma (Homo sapiens) (UniProt P22612); assay: Inhibition of PKAcg (unknown origin) assessed as residual activity at 1 uM by Kinomescan method relative to control
# [8] = biological target: Serine/threonine-protein kinase 38 (Homo sapiens) (UniProt Q15208); assay: Inhibition of wild-type human partial length NDR1 (N33 to E449 residues) expressed in mammalian expression system assessed as residual activity at 1 uM by Kinomescan method relative to control
# [9] = biological target: Mitogen-activated protein kinase 7 (Homo sapiens) (UniProt Q13164); assay: Inhibition of wild-type human partial length ERK5 (M1 to A409 residues) expressed in bacterial expression system assessed as residual activity at 1 uM by Kinomescan method relative to control
# [10] = biological target: Leukocyte tyrosine kinase receptor (Homo sapiens) (UniProt P29376); assay: Inhibition of wild-type human partial length LTK (P422 to S744 residues) expressed in bacterial expression system assessed as residual activity at 1 uM by Kinomescan method relative to control
# [11] = biological target: CDK1/Cyclin E (Homo sapiens) (UniProt P06493+P24864); assay: Inhibition of CDK1/Cyclin E (unknown origin) assessed as residual activity at 1 uM by Kinomescan method relative to control; format: protein-complex assay
# [12] = In vivo inhibition of LRRK2 in C57BL6 mouse assessed as reduction in Ser935 phosphorylation in brain at 45 mg/kg, po after 1 hr by Western blot analysis; format: functional; design: scale not given: the % may be the effect or the level left
# [13] = biological target: Mitogen-activated protein kinase kinase kinase 7 (Homo sapiens) (UniProt O43318); assay: Inhibition of wild-type human partial length TAK1 (M1 to Q303 residues) expressed in mammalian expression system assessed as residual activity at 1 uM by Kinomescan method relative to control
# [14] = biological target: Dual serine/threonine and tyrosine protein kinase (Homo sapiens) (UniProt Q6XUX3); assay: Inhibition of wild-type human full length RIPK5 (M1 to T929 residues) expressed in mammalian expression system assessed as residual activity at 1 uM by Kinomescan method relative to control
# [15] = biological target: Serine/threonine-protein kinase SIK1 (Homo sapiens) (UniProt P57059); assay: Inhibition of wild-type human partial length SIK1 (M1 to Y304 residues) expressed in bacterial expression system assessed as residual activity at 1 uM by Kinomescan method relative to control
# [16] = biological target: Serine/threonine-protein kinase pim-2 (Homo sapiens) (UniProt Q9P1W9); assay: Inhibition of wild-type human partial length PIM2 (M1 to E291 residues) expressed in bacterial expression system assessed as residual activity at 1 uM by Kinomescan method relative to control
# [17] = biological target: Protein kinase C iota type (Homo sapiens) (UniProt P41743); assay: Inhibition of PKCiota (unknown origin) assessed as residual activity at 1 uM by Kinomescan method relative to control
# [18] = biological target: Casein kinase I isoform alpha-like (Homo sapiens) (UniProt Q8N752); assay: Inhibition of CK1a1L (unknown origin) assessed as residual activity at 1 uM by Kinomescan method relative to control
# [19] = biological target: Serine/threonine-protein kinase PLK4 (Homo sapiens) (UniProt O00444); assay: Inhibition of wild-type human partial length PLK4 (M1 to S273 residues) expressed in mammalian expression system assessed as residual activity at 1 uM by Kinomescan method relative to control
# [20] = biological target: Testis-specific serine/threonine-protein kinase 1 (Homo sapiens) (UniProt Q9BXA7); assay: Inhibition of wild-type human full length TSSK1B (M1 to Q367 residues) expressed in bacterial expression system assessed as residual activity at 1 uM by Kinomescan method relative to control
# [21] = biological target: TRAF2 and NCK-interacting protein kinase (Homo sapiens) (UniProt Q9UKE5); assay: Inhibition of wild-type human partial length TNIK (D4 to K311 residues) expressed in bacterial expression system assessed as residual activity at 1 uM by Kinomescan method relative to control
# [22] = biological target: Tyrosine-protein kinase BTK (Homo sapiens) (UniProt Q06187); assay: Inhibition of wild-type human full length BTK (M1 to S659 residues) expressed in mammalian expression system assessed as residual activity at 1 uM by Kinomescan method relative to control
# [23] = Solubility of the compound in FaSSIF measured after 4 hrs; format: physicochemical
# [24] = biological target: STE20-like serine/threonine-protein kinase (Homo sapiens) (UniProt Q9H2G2); assay: Inhibition of wild-type human partial length SLK (S14 to A307 residues) expressed in bacterial expression system assessed as residual activity at 1 uM by Kinomescan method relative to control
# [25] = biological target: Cyclin-Y/Cyclin-dependent kinase 16 (Homo sapiens) (UniProt Q00536+Q8ND76); assay: Inhibition of CDK16/Cyclin Y (unknown origin) assessed as residual activity at 1 uM by Kinomescan method relative to control; format: protein-complex assay
# [26] = biological target: Mitogen-activated protein kinase kinase kinase 3 (Homo sapiens) (UniProt Q99759); assay: Inhibition of MEKK3 (unknown origin) assessed as residual activity at 1 uM by Kinomescan method relative to control
# [27] = biological target: Angiopoietin-1 receptor (Homo sapiens) (UniProt Q02763); assay: Inhibition of wild-type human partial length TIE2 (N804 to T1112 residues) expressed in bacterial expression system assessed as residual activity at 1 uM by Kinomescan method relative to control
# [28] = biological target: Rho-associated protein kinase 1 (Homo sapiens) (UniProt Q13464); assay: Inhibition of wild-type human partial length ROCK1 (M1 to R415 residues) expressed in mammalian expression system assessed as residual activity at 1 uM by Kinomescan method relative to control
# Sequence of Tyrosine-protein kinase Fgr (Homo sapiens) (P09769 2-529 limits assumed): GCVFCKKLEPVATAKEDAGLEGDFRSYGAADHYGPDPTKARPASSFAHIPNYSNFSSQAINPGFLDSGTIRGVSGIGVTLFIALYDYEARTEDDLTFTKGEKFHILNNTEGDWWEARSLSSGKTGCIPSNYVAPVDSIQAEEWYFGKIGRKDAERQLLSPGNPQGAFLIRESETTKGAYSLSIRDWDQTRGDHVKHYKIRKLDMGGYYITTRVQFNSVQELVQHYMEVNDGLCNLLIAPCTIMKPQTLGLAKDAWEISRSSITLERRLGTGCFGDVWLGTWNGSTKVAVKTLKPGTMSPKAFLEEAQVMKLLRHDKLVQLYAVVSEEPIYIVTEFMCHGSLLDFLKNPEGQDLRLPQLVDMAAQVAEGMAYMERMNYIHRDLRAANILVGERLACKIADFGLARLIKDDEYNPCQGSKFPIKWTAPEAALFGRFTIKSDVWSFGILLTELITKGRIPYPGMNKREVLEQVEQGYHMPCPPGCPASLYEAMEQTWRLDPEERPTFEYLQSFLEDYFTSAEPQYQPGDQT
# Sequence of Homeodomain-interacting protein kinase 2 (Homo sapiens) (Q9H2X6 whole entry, looked up, the tested form may be a part): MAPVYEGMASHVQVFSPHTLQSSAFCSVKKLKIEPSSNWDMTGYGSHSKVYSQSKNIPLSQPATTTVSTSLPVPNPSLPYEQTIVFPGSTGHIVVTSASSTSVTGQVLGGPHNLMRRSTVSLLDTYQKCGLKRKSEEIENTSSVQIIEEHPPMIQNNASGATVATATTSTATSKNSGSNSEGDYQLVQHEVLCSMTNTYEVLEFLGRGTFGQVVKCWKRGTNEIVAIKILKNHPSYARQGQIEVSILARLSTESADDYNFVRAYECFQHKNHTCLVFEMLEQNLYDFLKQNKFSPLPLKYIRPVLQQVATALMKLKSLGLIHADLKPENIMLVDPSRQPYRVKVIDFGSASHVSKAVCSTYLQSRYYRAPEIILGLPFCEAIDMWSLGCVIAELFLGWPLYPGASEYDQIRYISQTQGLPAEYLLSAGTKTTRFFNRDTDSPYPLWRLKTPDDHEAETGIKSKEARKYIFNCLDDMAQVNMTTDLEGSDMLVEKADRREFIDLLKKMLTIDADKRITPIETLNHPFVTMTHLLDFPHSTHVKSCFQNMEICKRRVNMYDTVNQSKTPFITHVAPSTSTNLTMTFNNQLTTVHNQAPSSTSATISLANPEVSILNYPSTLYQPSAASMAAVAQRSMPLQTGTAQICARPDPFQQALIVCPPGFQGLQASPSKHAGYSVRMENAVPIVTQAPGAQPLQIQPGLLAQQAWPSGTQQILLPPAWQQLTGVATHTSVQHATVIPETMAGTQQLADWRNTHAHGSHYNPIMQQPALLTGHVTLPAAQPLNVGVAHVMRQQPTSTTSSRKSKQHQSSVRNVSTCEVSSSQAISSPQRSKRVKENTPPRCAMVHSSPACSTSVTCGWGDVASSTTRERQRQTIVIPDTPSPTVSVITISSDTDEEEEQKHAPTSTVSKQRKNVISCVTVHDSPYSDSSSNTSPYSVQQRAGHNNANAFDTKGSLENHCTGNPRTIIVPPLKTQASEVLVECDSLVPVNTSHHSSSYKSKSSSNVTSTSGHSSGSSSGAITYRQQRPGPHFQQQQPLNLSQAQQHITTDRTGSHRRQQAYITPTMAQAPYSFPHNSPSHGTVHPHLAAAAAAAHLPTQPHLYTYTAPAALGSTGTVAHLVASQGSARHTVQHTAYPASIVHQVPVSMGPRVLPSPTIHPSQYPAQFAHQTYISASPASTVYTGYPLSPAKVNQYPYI
# Sequence of cAMP-dependent protein kinase catalytic subunit gamma (Homo sapiens) (P22612 2-351 limits assumed): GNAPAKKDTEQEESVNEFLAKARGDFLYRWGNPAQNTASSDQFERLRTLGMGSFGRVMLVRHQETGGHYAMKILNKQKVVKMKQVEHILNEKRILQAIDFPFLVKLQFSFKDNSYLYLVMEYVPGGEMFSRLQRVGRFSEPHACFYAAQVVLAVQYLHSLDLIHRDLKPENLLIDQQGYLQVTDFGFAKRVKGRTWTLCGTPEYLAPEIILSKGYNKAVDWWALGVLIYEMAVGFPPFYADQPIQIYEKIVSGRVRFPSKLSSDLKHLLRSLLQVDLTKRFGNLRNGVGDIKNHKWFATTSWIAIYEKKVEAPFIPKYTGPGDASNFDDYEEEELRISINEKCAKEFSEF
# Sequence of Leukocyte tyrosine kinase receptor (Homo sapiens) (P29376 whole entry, the tested form may be a part): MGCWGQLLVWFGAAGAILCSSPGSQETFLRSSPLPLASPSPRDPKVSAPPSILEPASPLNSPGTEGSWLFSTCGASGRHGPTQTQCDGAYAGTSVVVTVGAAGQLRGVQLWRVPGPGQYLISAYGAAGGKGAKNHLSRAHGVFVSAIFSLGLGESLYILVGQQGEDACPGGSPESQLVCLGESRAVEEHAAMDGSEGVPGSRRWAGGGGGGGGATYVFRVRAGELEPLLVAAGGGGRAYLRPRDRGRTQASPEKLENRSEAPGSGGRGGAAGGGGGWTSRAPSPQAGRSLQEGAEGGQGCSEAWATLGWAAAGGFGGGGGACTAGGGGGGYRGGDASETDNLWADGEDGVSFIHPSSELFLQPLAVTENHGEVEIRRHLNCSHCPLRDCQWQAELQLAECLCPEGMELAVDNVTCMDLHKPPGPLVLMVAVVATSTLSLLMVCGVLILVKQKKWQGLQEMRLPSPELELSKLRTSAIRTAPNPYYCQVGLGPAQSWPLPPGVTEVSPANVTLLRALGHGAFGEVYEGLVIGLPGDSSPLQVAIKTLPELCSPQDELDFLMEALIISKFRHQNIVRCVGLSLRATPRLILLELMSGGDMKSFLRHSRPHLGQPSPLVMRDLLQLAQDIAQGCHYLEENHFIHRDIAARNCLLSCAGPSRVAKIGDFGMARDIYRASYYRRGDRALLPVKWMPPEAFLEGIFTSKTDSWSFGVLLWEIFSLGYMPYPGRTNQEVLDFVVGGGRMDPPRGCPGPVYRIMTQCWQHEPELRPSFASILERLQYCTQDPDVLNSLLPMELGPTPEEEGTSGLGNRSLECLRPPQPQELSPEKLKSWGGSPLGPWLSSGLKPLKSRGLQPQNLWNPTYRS
# Sequence of Serine/threonine-protein kinase 38 (Homo sapiens) (Q15208 2-465 limits assumed): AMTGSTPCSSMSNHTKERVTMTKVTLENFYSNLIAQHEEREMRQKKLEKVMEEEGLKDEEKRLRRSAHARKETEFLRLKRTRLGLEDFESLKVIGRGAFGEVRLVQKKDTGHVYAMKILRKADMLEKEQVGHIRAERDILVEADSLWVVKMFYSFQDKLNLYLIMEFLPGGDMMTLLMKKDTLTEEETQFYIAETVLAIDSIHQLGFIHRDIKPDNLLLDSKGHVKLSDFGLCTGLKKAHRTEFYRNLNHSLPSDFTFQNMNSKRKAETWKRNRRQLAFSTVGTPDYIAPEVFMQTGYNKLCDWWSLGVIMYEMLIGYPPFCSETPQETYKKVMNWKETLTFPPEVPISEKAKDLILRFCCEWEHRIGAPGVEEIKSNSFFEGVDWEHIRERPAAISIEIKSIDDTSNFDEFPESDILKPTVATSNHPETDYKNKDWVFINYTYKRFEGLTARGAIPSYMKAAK
# Sequence of TRAF2 and NCK-interacting protein kinase (Homo sapiens) (Q9UKE5 whole entry, looked up, the tested form may be a part): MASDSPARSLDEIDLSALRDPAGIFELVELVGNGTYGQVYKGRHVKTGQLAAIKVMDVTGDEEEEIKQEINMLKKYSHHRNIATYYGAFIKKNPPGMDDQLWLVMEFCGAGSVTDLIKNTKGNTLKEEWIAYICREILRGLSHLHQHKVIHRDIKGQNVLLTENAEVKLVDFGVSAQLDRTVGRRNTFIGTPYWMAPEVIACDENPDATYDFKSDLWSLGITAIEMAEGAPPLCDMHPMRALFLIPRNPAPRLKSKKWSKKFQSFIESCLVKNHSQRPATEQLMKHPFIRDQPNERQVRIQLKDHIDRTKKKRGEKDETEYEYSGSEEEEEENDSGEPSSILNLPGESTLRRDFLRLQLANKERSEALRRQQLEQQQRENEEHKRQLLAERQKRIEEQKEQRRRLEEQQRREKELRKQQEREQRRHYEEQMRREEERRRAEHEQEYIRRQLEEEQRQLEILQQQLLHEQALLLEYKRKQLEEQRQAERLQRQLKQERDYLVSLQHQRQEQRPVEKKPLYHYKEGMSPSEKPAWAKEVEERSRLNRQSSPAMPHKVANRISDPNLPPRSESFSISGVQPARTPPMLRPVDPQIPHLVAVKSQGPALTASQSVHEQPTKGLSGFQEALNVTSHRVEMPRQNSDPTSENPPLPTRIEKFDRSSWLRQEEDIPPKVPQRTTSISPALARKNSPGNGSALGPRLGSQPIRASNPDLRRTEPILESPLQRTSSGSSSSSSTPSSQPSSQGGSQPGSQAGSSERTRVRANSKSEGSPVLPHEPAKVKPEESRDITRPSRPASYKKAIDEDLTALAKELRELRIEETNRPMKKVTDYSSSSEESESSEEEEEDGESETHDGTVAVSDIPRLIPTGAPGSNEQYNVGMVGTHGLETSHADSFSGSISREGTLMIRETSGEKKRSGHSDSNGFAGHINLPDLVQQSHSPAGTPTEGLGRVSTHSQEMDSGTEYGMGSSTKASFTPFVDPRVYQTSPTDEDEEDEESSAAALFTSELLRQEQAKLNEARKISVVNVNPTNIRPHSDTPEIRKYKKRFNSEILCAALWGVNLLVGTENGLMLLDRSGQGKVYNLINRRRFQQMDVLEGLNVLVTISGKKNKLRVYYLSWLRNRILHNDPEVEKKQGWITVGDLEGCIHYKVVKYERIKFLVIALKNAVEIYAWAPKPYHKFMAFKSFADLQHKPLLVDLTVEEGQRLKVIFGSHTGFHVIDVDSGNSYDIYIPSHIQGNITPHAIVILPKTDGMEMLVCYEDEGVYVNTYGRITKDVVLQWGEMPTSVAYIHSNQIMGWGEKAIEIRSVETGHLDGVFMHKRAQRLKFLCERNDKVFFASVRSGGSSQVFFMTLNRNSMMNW
# Sequence of Serine/threonine-protein kinase pim-2 (Homo sapiens) (Q9P1W9 whole entry, looked up, the tested form may be a part): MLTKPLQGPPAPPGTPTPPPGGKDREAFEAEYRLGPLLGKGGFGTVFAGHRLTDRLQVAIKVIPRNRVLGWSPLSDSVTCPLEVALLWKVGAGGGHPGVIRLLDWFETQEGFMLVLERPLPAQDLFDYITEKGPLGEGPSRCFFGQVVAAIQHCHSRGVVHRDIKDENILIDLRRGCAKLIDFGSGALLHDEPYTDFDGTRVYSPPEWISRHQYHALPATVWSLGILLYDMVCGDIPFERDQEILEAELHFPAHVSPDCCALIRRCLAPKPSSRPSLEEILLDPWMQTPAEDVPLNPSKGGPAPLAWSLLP
compound,measurement,setting,value
CCOc1nc(Nc2ccc(C(=O)N3CCOCC3)cc2OC)nc2[nH]ccc12,Activity,[1],104%
same,Activity,[2],100%
same,Activity,[3],96.9%
same,Activity,[4],66.9%
same,Activity,[5],97.8%
same,Activity,[6],0.91%
same,Activity,[7],110%
same,Activity,[8],97.8%
same,Activity,[9],99.1%
same,Activity,[10],20.2%
same,Activity,[11],96.4%
same,Activity,[12],50%
same,Activity,[13],87.5%
same,Activity,[14],111%
same,Activity,[15],101%
same,Activity,[16],94.7%
same,Activity,[17],96.5%
same,Activity,[18],95%
same,Activity,[19],58.8%
same,Activity,[20],2.41%
same,Activity,[21],98.4%
same,Activity,[22],101%
same,solubility at 4 h,[23],127 µg/mL
same,Activity,[24],109%
same,Activity,[25],105%
same,Activity,[26],97%
same,Activity,[27],108%
same,Activity,[28],94.2%
